Assay results: article PMC3953731 (FEBS Open Bio, 2014)
Where two headings read alike, the source gives them in different places.

Tests used:
Ima1p [1] = biological target: T1, Ima1p (Saccharomyces cerevisiae, UniProt P53051); assay: Effects of chemical reagents and metal ions on purified isomaltases; type: biochemical; details: 5 mM pNPG as substrate; for effect on activity: Mg2+ 5 mM, Mn2+ 1 mM
Ima1p [2] = biological target: T1, Ima1p; assay: Inhibition by acarbose of isomaltose hydrolysis; type: biochemical; details: read-out: residual activity
Ima3p [3] = biological target: T2, Ima3p (Saccharomyces cerevisiae, UniProt P0CW40); details: addition of EDTA, 5 mM; 5 mM pNPG as substrate
Ima1p [4] = biological target: T1, Ima1p; assay: Substrate specificity of purified isomaltase; type: biochemical; details: 100 mM substrate (pNPG 5 mM), pH 7, 30 °C; for Specific activities: citrate–potassium phosphate buffer
Ima2p [5] = biological target: T3, Ima2p (Saccharomyces cerevisiae, UniProt Q08295); assay: Substrate specificity of purified isomaltase; type: biochemical; details: 100 mM substrate (pNPG 5 mM), pH 7, 30 °C; for Specific activities: citrate–potassium phosphate buffer
Ima3p [6] = biological target: T2, Ima3p; assay: Substrate specificity of purified isomaltase; type: biochemical; details: 100 mM substrate (pNPG 5 mM), pH 7, 30 °C; for Specific activities: citrate–potassium phosphate buffer
Ima5p [7] = biological target: T4, Ima5p (Saccharomyces cerevisiae, UniProt P40884); assay: Substrate specificity of purified isomaltase; type: biochemical; details: 100 mM substrate (pNPG 5 mM), pH 7, 30 °C; for Specific activities: citrate–potassium phosphate buffer
T4 sequence (P40884 1-581): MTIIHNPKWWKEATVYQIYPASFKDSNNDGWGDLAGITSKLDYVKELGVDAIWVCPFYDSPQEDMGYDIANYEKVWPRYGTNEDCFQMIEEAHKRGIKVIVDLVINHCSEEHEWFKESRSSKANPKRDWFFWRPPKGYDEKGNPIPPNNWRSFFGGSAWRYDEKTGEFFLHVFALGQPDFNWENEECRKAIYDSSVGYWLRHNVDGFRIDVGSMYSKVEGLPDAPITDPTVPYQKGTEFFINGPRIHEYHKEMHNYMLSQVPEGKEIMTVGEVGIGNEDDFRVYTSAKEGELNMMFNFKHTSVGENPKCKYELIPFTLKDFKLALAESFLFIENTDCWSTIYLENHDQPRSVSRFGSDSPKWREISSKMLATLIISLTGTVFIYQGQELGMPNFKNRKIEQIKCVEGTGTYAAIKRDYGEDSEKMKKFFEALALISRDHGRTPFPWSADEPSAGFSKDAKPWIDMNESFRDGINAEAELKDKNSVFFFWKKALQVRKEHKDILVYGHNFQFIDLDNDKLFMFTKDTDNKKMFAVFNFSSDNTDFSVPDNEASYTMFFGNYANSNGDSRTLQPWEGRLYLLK

[8] = system: the four isomaltases (Ima1p, Ima2p, Ima3p, Ima5p); assay: Activity of the isomaltases on substrates; type: biochemical, Saccharomyces cerevisiae; details: for activity on the substrate: all Ima proteins
Ima3pL240P = Ima3pL240P (Saccharomyces cerevisiae, UniProt P0CW40, L240P); assay: Substrate specificity of purified isomaltase variant; type: biochemical; details: 100 mM substrate (pNPG 5 mM), citrate–potassium phosphate buffer, pH 7, 30 °C
Ima3pR279Q = Ima3pR279Q (Saccharomyces cerevisiae, UniProt P0CW40, R279Q); assay: as above; type: biochemical; details: 100 mM substrate (pNPG 5 mM), citrate–potassium phosphate buffer, pH 7, 30 °C
Ima1p [9] = biological target: T1, Ima1p; assay: Kinetic parameters for selected substrates; type: biochemical
Ima2p [10] = biological target: T3, Ima2p; assay: Kinetic parameters for selected substrates; type: biochemical
Ima3p [11] = biological target: T2, Ima3p; assay: Kinetic parameters for selected substrates; type: biochemical
Ima5p [12] = biological target: T4, Ima5p; assay: Kinetic parameters for selected substrates; type: biochemical
[13] = system: the four isomaltases (Ima1p, Ima2p, Ima3p, Ima5p); assay: Effects of chemical reagents and metal ions on purified isomaltases; type: biochemical, Saccharomyces cerevisiae
Ima1p [14] = biological target: T1, Ima1p; assay: Inhibition by maltose of isomaltose hydrolysis; type: biochemical
Ima5p [15] = biological target: T4, Ima5p; assay: Inhibition by maltose of isomaltose hydrolysis; type: biochemical; details: isomaltose up to 50 mM
[16] = system: the four isomaltases (Ima proteins); assay: Effect of compounds on melting temperature of isomaltases; set-up: species or system Saccharomyces cerevisiae
Ima1p [17] = biological target: T1, Ima1p; details: isomaltose 50–500 mM; cited from earlier work
[18] = substrate concentration increased to 10 mM
[19] = affinity constant for the substrate, mean ± SEM
[20] = inhibition by high concentration of substrate

T2 sequence (P0CW40 whole entry): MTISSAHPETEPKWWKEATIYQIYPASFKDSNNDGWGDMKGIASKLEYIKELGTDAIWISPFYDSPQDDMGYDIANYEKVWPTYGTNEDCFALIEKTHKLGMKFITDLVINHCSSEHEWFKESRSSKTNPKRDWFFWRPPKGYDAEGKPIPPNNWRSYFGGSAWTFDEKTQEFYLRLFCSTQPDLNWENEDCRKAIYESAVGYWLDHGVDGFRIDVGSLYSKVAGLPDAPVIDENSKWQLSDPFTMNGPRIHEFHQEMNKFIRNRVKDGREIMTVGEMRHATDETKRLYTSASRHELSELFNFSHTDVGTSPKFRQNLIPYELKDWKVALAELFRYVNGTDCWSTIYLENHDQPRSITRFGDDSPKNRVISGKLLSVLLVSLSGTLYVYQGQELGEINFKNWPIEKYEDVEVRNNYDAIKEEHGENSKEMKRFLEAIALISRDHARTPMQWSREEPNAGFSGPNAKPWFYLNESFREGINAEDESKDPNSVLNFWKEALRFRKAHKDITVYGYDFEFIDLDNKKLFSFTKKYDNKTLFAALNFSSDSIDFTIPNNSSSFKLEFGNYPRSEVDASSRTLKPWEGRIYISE
T1 sequence (P53051 whole entry): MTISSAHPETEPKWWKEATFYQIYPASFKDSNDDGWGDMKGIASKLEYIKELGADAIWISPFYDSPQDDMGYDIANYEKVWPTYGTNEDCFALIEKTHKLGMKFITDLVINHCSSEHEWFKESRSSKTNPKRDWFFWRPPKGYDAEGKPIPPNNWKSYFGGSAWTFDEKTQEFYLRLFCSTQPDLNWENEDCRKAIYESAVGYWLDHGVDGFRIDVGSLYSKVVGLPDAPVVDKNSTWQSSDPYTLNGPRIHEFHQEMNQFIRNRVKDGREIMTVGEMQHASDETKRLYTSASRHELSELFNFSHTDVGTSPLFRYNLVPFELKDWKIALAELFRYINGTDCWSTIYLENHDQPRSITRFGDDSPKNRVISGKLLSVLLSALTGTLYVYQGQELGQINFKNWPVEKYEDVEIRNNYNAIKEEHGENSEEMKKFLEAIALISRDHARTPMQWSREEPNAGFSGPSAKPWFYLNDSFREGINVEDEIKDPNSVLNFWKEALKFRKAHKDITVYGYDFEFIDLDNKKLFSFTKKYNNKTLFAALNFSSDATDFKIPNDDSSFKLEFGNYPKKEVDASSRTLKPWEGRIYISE
T3 sequence (Q08295 whole entry): as the sequence (P0CW40 whole entry) above, with T54A, L240P, R279Q counted along it
Chain of Ima3pL240P (P0CW40 whole entry L240P): as the sequence (P0CW40 whole entry) above, with L240P counted along it
Chain of Ima3pR279Q (P0CW40 whole entry R279Q): as the sequence (P0CW40 whole entry) above, with R279Q counted along it

## [Mg+2] [Mg^2+]
Ima1p [1]
  effect on activity: slightly enhanced

## C[C@H]1O[C@H](O[C@H]2[C@H](O)[C@@H](O)[C@@H](O[C@H]3[C@H](O)[C@@H](O)C(O)O[C@@H]3CO)O[C@@H]2CO)[C@H](O)[C@@H](O)[C@@H]1N[C@H]1C=C(CO)[C@@H](O)[C@H](O)[C@H]1O (stereo partly shown) [acarbose]
Ima1p [2]
  remaining activity at 5000 µM: ~80%
  remaining activity at 20000 µM: ~40%

## O=C(O)CN(CCN(CC(=O)O)CC(=O)O)CC(=O)O [EDTA]
Ima3p [3]
  effect on activity: slightly inhibited

## O=[N+]([O-])c1ccc(O[C@@H]2O[C@H](CO)[C@@H](O)[C@H](O)[C@H]2O)cc1 [β-pNPG, 4-Nitrophenyl β-D-glucopyranoside]
Ima1p [4]
  Specific activities: 0 µmol/min/mg
Ima2p [5]
  Specific activities: 0 µmol/min/mg
Ima3p [6]
  Specific activities: 0 µmol/min/mg
Ima5p [7]
  Specific activities: 0 µmol/min/mg
[8]
  activity on the substrate: no release of pNP

## OC[C@H]1O[C@H](OC[C@H]2O[C@H](O)[C@H](O)[C@@H](O)[C@@H]2O)[C@H](O)[C@@H](O)[C@H]1O [melibiose, O-α-D-galactosyl-(1→6)-α-D-glucose]
[8]
  activity on the substrate: inactive

## O=[N+]([O-])c1ccc(O[C@H]2O[C@H](CO)[C@@H](O)[C@H](O)[C@H]2O)cc1 [α-pNPG, 4-Nitrophenyl α-D-glucopyranoside]
Ima1p [4]
  Specific activities: 5.8 µmol/min/mg
  relative activity, velocity on isomaltose set to 100: 10%
Ima2p [5]
  Specific activities: 7.7 µmol/min/mg
  relative activity, velocity on isomaltose set to 100: 14%
Ima3p [6]
  Specific activities: 3.9 µmol/min/mg
  relative activity, velocity on isomaltose set to 100: 54%
Ima5p [7]
  Specific activities: 10 µmol/min/mg
  relative activity, velocity on isomaltose set to 100: 15%
Ima3pL240P
  Specific activities: 5.5 µmol/min/mg
Ima3pR279Q
  Specific activities: 8.5 µmol/min/mg
Ima1p [9]
  Ki: 25 ± 15 mM
Ima1p [9]; [18]
  drop of activity at high substrate concentration: 10%
Ima2p [10]
  Ki: 12 ± 3 mM
Ima3p [11]
  Ki: 9.8 ± 3.2 mM
Ima3p [11]; [18]
  drop of activity at high substrate concentration: 33%
Ima5p [12]
  Ki: 33 ± 21 mM
Ima5p [12]; [18]
  drop of activity at high substrate concentration: 10%
[8]; read-out: affinity constants (Km), approximate, over the Ima proteins
  Km: ~500 µM

## [Ca+2] [Ca^2+]
[13]; addition of Ca2+, 5 mM
  effect on activity: None of the isoforms was affected

## OC[C@H]1O[C@H](O[C@H]2[C@H](O)[C@@H](O)[C@H](O)O[C@@H]2CO)[C@H](O)[C@@H](O)[C@@H]1O [Maltose, O-α-D-Glucosyl-(1→4)-α-D-glucose]
Ima1p [4]
  Specific activities: 0 µmol/min/mg
Ima2p [5]
  Specific activities: 0 µmol/min/mg
Ima3p [6]
  Specific activities: 0 µmol/min/mg
Ima5p [7]
  Specific activities: 0 µmol/min/mg
Ima1p [14]; at high substrate concentration
  type of inhibition: uncompetitive inhibition
Ima1p [14]; at low substrate concentration
  type of inhibition: competitive inhibition
Ima5p [15]
  type of inhibition: mixed inhibition
[8]
  activity on the substrate: totally inactive
[16]; presence of maltose, results not shown
  effect on melting temperature: did not affect the melting temperature
Ima1p [17]
  type of inhibition: competitive inhibitor

## maltopentaose
[8]
  activity on the substrate: No activity could be detected

## COC1OC(CO)C(O)C(O)C1O (stereo not drawn) [α-MG, α-Methylglucopyranoside]
Ima1p [4]
  Specific activities: 52 µmol/min/mg
  relative activity, velocity on isomaltose set to 100: 87%
Ima2p [5]
  Specific activities: 55 µmol/min/mg
  relative activity, velocity on isomaltose set to 100: 102%
Ima3p [6]
  Specific activities: 11 µmol/min/mg
  relative activity, velocity on isomaltose set to 100: 153%
Ima5p [7]
  Specific activities: 0 (0) μmol/min/mg
  relative activity, velocity on isomaltose set to 100: 0 (0) %
Ima3pL240P
  Specific activities: 6.5 µmol/min/mg
Ima3pR279Q
  Specific activities: 50 µmol/min/mg
Ima1p [9]; [19]
  Km: 27 ± 5 mM
Ima1p [9]; mean ± SEM
  kcat: 84 ± 8 s⁻¹
Ima2p [10]; [19]
  Km: 28 ± 6 mM
Ima2p [10]; mean ± SEM
  kcat: 88 ± 9 s⁻¹
Ima3p [11]; [19]
  Km: 15 ± 2 mM
Ima3p [11]; [20]
  Ki: None
Ima3p [11]; mean ± SEM
  kcat: 14 ± 1 s⁻¹
Ima5p [12]; [20]
  Ki: None
Ima5p [12]; mean ± SEM
  kcat: 0 s⁻¹

## [Fe+3] [Fe^3+]
Ima1p [1]; 5 mM Fe3+, pH 7, 30 °C
  residual activity: 8%

## maltoheptaose
[8]
  activity on the substrate: No activity could be detected

## NC(CO)(CO)CO [Tris]
[13]; 5 mM Tris
  inhibition of the activity: 90%
[16]; Tris 5 mM, assay at pH 7.0, results not shown
  increase of Tm of the 4 proteins: about 5 °C

## [Mn+2] [Mn^2+]
Ima1p [1]
  effect on activity: slightly enhanced
